According to patent US20220026411A1, “ANALYTICAL METHODS AND ARRAYS FOR USE IN THE SAME” (SENZAGEN AB, priority 2019, published 2022):
Where two headings read alike, the source gives them in different places.

Experiments:
[1] = cited from earlier work; for True group: true group belonging of external test chemicals; for Function in study: training data set, as defined by available literature and expert consensus
SenzaCell [2] = test: GARDair assay: gene expression signature (GRPS, 28 genes) of chemically exposed DC-like cells, SVM classification; conditions: finalized GARDair prediction model; RS if mean SVM decision value (n=3) > 0; 24 h exposure at GARD input concentration
Method: (§1) All exposures were performed in repeated triplicate experiments in a controlled setting, thus generating a coherent dataset with high statistical power optimized for subsequent biomarker discovery.
(§2) A prediction model was trained and frozen, based on a Support Vector Machine (SVM), using the samples of the training data set with a binary “function in study” (respiratory sensitizer/non-respiratory sensitizer) as the dependent variable, and the gene expression values of the GRPS as the independent variables (i.e. predictors), see also Table 4.
(§3) Having established an optimized prediction model and associated protocols, the assay was challenged with two sets of external samples, referred to as test data sets.
(§4) The human myeloid leukemia-derived cell line SenzaCell (available through ATCC), acting as an in vitro model of human Dendritic Cell (DC), is maintained in a-MEM (Thermo Scientific Hyclone, Logan, Utah) supplemented with 20% (volume/volume) fetal calf serum (Life Technologies, Carlsbad, Calif.) and 40 ng/ml recombinant human Granulocyte Macrophage Colony Stimulating Factor (rhGM-CSF) (Miltenyi Biotec, Germany). A media change during expansion is performed every 3-4 days. Working stocks of cultures are grown for a maximum of 16 passages or two months after thawing. For chemical stimulation of cells, exposed cells are incubated for 24 h at 37° C., 5% CO2 and 95% humidity.
(§5) Some Test Substances were poorly dissolved in cell media; therefore, the maximum soluble concentration was assessed as well. The Test Substance that was to be tested was titrated to concentrations ranging from 1 μM to the maximum soluble concentration in cell media. For freely soluble Test Substances, 500 μM was set as the upper limit of the titration range. For Test Substances dissolved in DMSO, the in-well concentration of DMSO was 0.1%. After incubation for 24 h at 37° C., 5% CO2 and 95% humidity, harvested cells were stained with the viability marker Propidium Iodide (PI) (BD Bioscience, USA) and analyzed by flow cytometry. PI-negative cells were defined as viable, and the relative viability of cells stimulated with each concentration in the titration range was calculated as
(§6) For non-toxic Test Substances, a concentration of 500 μM was used if possible. For non-toxic Test Substances that were insoluble at 500 μM in cell media, the highest soluble concentration was used. Whichever of these three criteria was met, only one concentration will be used for gene expression analysis. The concentration to be used for any given chemical was termed the ‘GARD input concentration’.
(§7) Once the GARD input concentration for Test Substances to be assayed was established, the cells were stimulated again as described above, this time only using the GARD input concentration. All assessments of Test Substances and Benchmark Controls were assayed in biological triplicates, performed at different time-points and using different cell cultures. After incubation for 24 h at 37° C., 5% CO2 and 95% humidity, cell culture was lysed in TRlzol reagent (Life Technologies) and stored at −20° C. until RNA was extracted. In parallel, a small sample of stimulated cells was taken for PI staining and analysis with flow cytometry, to ensure the expected relative viability of stimulated cells was reached.

SenzaCell [3] = test system: SenzaCell
Method: as §1, §2, §3, §4, §5, §6, §7

| SMILES | True group [1] | Prediction Test set 1 (SenzaCell [2]) | also measured |
| --- | --- | --- | --- |
| Nc1ccc(N)cc1 [PPD] | NRS | NRS | Prediction Test set 2 (SenzaCell [2]): NRS |
| Clc1ccccc1 [chlorobenzene] | – | – | Prediction Test set 2 (SenzaCell [2]): NRS |
| O=C(O)c1ccccc1O [Salicylic acid] | NRS | – | – |
| Oc1cccc(O)c1 [Resorcinol] | – | NRS | – |
| CCOC(=O)c1ccccc1C(=O)OCC [Diethyl phthalate] | NRS | NRS | – |
| O=Cc1ccccc1 [Benzaldehyde] | – | NRS | – |
| C=CCc1ccc(O)c(OC)c1 [Eugenol] | NRS | NRS | – |
| CCCCCCC(C=O)=Cc1ccccc1 [hexylcinnamic aldehyde] | – | – | Function in study [1]: SS/NRS |
| Oc1ccccc1 [Phenol] | – | – | Prediction Test set 1 (SenzaCell [3]): NRS |
| OCC=Cc1ccccc1 [Cinnamyl alcohol] | NRS | NRS | – |
| Nc1ccccc1O [2-aminophenol] | – | – | Function in study [1]: SS/NRS |
| CCCCCCCCCCCCOS(=O)(=O)[O-].[Na+] [SDS] | NRS | NRS | – |
| CC=Cc1ccc(O)c(OC)c1 [Isoeugenol] | NRS | NRS | – |
| Sc1nc2ccccc2s1 [2-Mercaptobenzothiazole] | NRS | – | – |
| CCCCCCCC(=O)O [Octanoic acid] | NRS | NRS | – |
| O=C(O)c1ccc(O)cc1 [4-Hydroxybenzoic acid] | NRS | NRS | – |
| [K+].[K+].[O]=[Cr](=[O])([O-])[O][Cr](=[O])(=[O])[O-] [potassium dichromate] | – | – | Function in study [1]: SS/NRS |
| CC1(C)S[C@@H]2[C@H](NC(=O)Cc3ccccc3)C(=O)N2[C@H]1C(=O)O [penicillin G] | – | – | Function in study [1]: SS/NRS |
| C[S+](C)[O-] [DMSO] | NRS | – | Prediction Test set 2 (SenzaCell [2]): NRS |
| O=[N+]([O-])c1ccc(Cl)c([N+](=O)[O-])c1 [DNCB] | NRS | NRS | Prediction Test set 2 (SenzaCell [2]): NRS |
| OCC(O)CO [Glycerol] | – | NRS | – |
